# Counter-ions that a name gives are not always drawn.
# System: HL60 human leukaemia cell lines
# Assay: Antiproliferative activity by MTS assay (CellTiter 96 Aqueous One Solution)
# Assay type: cell-based
# Settings: HL-60, HL60 cells, 72 hr treatment, triplicate
# Experimental: Antiproliferative activity was determined by MTS assay (Howell L A, Bowater R A, O'Connell M A, Reszka A P, Neidle S, Searcey M. (2012) Synthesis of Small Molecules Targeting Multiple DNA Structures using Click Chemistry. ChemMedChem, 7, 792-804) using the CellTiter 96 Aqueous One Solution Cell Proliferation Assay (Promega) and following the manufacturer's instructions.
# The HL60 cell line was purchased from ECACC (Porton Down, UK). Cells were cultured in RPMI 1640 medium supplemented with 10% foetal calf serum and 2 mM L-glutamine. HL-60 cells were passaged twice weekly and maintained between 1-9×10^5 cells/ml at 37° C. and 5% CO2.
# HL-60 cells (3×10^4/100 μl) were seeded in 96-well plates and left untreated or treated with DMSO (vehicle control), duocarmycins, or doxorubicin hydrochloride at 8 concentrations (see below) in triplicate for 72 hr at 37° C. with 5% CO2. Following this, MTS assay reagent was added for 4 hrs and the absorbance measured at 490 nm using the Polarstar Optima microplate reader (BMG Labtech). IC50 values were calculated using GraphPad Prism Version 5.0 software.
smiles,measurement,value
"COc1cccc2c1C(=O)c1c(O)c3c(c(O)c1C2=O)C[C@@](O)(C(=O)CO)C[C@@H]3O[C@H]1C[C@H](N)[C@H](O)[C@H](C)O1 [Doxorubicin, doxorubicin hydrochloride]",IC50,125 nM

# From US9765077B2, “Synthesis of duocarmycin analogues” (University of East Anglia, priority 2015, dated 2017)
